Patent publication US12497465B2, “Combination of antibody-drug conjugate and tubulin inhibitor” (priority 2018, dated 2025)
Where a name gives a salt, the structure may show the parent alone. Read-outs that look alike come from different tables or passages of the source.

B1: antibody-drug conjugate (3): anti-CDH6 antibody (SEQ ID NO: 11 residues 20-471, SEQ ID NO: 12 residues 21-233) conjugated to exatecan-derivative drug-linker via a thioether bond (conjugate, chains of the INN, looked up)
VH: EVQLVQSGAEVKKPGASVKVSCKASGYTFTRNFMHWVRQAPGQGLEWMGWIYPGDGETEYAQKFQGRVTITADTSTSTAYMELSSLRSEDTAVYYCARGVYGGFAGGYFDFWGQGTLVTVSS
VL: DIQMTQSPSSLSASVGDRVTITCKASQNIYKNLAWYQQKPGKAPKLLIYDANTLQTGVPSRFSGSGSGSDFTLTISSLQPEDFATYFCQQYYSGWAFGQGTKVEIK
modifications: exatecan-derivative drug-linker (deruxtecan)

Assays:
[1] = system: Human breast cancer cell line KPL-4; test: Antitumor study (1): subcutaneously transplanted KPL-4 cells in nude mice; assay type: in vivo; conditions: KPL-4 xenograft, BALB/c nude mice, last day of the study; ADC (1) […] iv Day 0; paclitaxel 15 mg/kg iv Day 0, 7; eribulin mesylate 0.8 mg/kg iv Day 0, 4
Text: The calculation formula is as shown below.
Human breast cancer cell line KPL-4, which was obtained from Dr. Junichi Kurebayashi in Kawasaki Medical School [British Journal of Cancer, (1999) 79 (5/6).

[2] = system: Human breast cancer cell line JIMT-1; test: Antitumor study (2): subcutaneously transplanted JIMT-1 cells in nude mice; assay type: in vivo; conditions: JIMT-1 xenograft, ADC (1) 10 mg/kg iv Day 0, paclitaxel 15 mg/kg iv Day 0, 7, 14, eribulin mesylate 0.8 mg/kg iv Day 0, 3
Experimental: (§1) Measurement and calculation formula: In all studies, the major axis and minor axis of tumors were measured twice a week with an electronic digital caliper (CD15-CX, Mitutoyo Corp.), and the tumor volume (mm^3) was calculated. The calculation formula is as shown below. Tumor volume(mm^3)=½×Major axis(mm)×[Minor axis (mm)]^2
(§2) Paclitaxel was dissolved with cremophor and ethanol (1:1), diluted with physiological saline, and then intravenously administered to the tail vein in a fluid volume of 10 or 20 mL/kg. Eribulin mesylate was diluted with physiological saline, and intravenously administered to the tail vein in a fluid volume of 10 mL/kg.
Human breast cancer cell line JIMT-1, which was purchased from DSMZ (Deutsche Sammlung von Mikroorganismen und Zellkulturen GmbH), was suspended into physiological saline, subcutaneously transplanted at 5×10^6 cells into the right side of female nude mice, and the mice were randomly grouped 13 days after the transplantation (Day 0). […] Paclitaxel was intravenously administered to the tail vein at a dose of 15 mg/kg on Day 0, Day 7 and Day 14. Eribulin mesylate was intravenously administered to the tail vein at a dose of 0.8 mg/kg on Day 0 and Day 3. Single administration groups of each drug, a combined administration group, and a solvent administration group as a control group were set up.

[3] = system: Human gastric cancer cell line NCI-N87; test: Antitumor study (3): subcutaneously transplanted NCI-N87 cells in nude mice; assay type: in vivo; conditions: NCI-N87 xenograft, ADC (1) 1 mg/kg iv Day 0, paclitaxel 15 mg/kg iv Day 0, 7, eribulin mesylate 0.4 mg/kg iv Day 0, 4
Experimental: as §1, §2
Human gastric cancer cell line NCI-N87, which was purchased from ATCC (American Type Culture Collection), was suspended into physiological saline, subcutaneously transplanted at 1×10^7 cells into the right side of female nude mice, and the mice were randomly grouped 6 days after the transplantation (Day 0). […] Paclitaxel was intravenously administered to the tail vein at a dose of 15 mg/kg on Day 0 and Day 7. Eribulin mesylate was intravenously administered to the tail vein at a dose of 0.4 mg/kg on Day 0 and Day 4. Single administration groups of each drug, a combined administration group, and a solvent administration group as a control group were set up.

[4] = system: Human breast cancer cell line JIMT-1; conditions: JIMT-1 xenograft, nude mice; ADC (2) 10 mg/kg iv Day 0, 7, 14; paclitaxel 15 mg/kg iv Day 0, 7
Experimental: as §1
(§3) Paclitaxel was dissolved with cremophor and ethanol (1:1), diluted with physiological saline, and then intravenously administered to the tail vein in a fluid volume of 10 or 20 mL/kg.
Human breast cancer cell line JIMT-1, which was purchased from DSMZ, was suspended into physiological saline, subcutaneously transplanted at 5×10^6 cells into the right side of female nude mice, and the mice were randomly grouped 10 days after the transplantation (Day 0). […] Paclitaxel was intravenously administered to the tail vein at a dose of 15 mg/kg on Day 0 and Day 7. Single administration groups of each drug, a combined administration group, and a solvent administration group as a control group were set up.

[5] = system: Human gastric cancer cell line SNU-1; test: Antitumor study (5): subcutaneously transplanted SNU-1 cells in nude mice; conditions: SNU-1 xenograft, ADC (1) 10 mg/kg iv Day 0, paclitaxel 15 mg/kg iv Day 0, 7
Experimental: as §1, §3
Human gastric cancer cell line SNU-1, which was purchased from ATCC, was suspended into Matrigel, subcutaneously transplanted at 1×10^7 cells into the right side of female nude mice, and the mice were randomly grouped 28 days after the transplantation (Day 0). […] Paclitaxel was intravenously administered to the tail vein at a dose of 15 mg/kg on Day 0 and Day 7. Single administration groups of each drug, a combined administration group, and a solvent administration group as a control group were set up.

[6] = system: Human ovarian cancer cell line OV-90; test: Antitumor study (8): subcutaneously transplanted OV-90 cells in nude mice; conditions: OV-90 xenograft, Day 17, ADC (3) 10 mg/kg iv Day 0, paclitaxel 15 mg/kg iv Day 0, 7, 14
Experimental: as §1, §3
Human ovarian cancer cell line OV-90, which was purchased from ATCC, was suspended into Matrigel, subcutaneously transplanted at 2.5×10^6 cells into the right side of female nude mice, and the mice were randomly grouped 15 days after the transplantation (Day 0). […] Paclitaxel was intravenously administered to the tail vein at a dose of 15 mg/kg on Day 0, Day 7, and Day 14. Single administration groups of each drug, a combined administration group, and a solvent administration group as a control group were set up.

[7] = system: Human lung cancer cell line NCI-H441; test: Antitumor study (6): subcutaneously transplanted NCI-H441 cells in nude mice; conditions: NCI-H441 xenograft, ADC (1) 10 mg/kg iv Day 0, paclitaxel 15 mg/kg iv Day 0, 7
Experimental: as §1, §3
Human lung cancer cell line NCI-H441, which was purchased from ATCC, was suspended into Matrigel, subcutaneously transplanted at 5×10^6 cells into the right side of female nude mice, and the mice were randomly grouped 7 days after the transplantation (Day 0). […] Paclitaxel was intravenously administered to the tail vein at a dose of 15 mg/kg on Day 0 and Day 7. Single administration groups of each drug, a combined administration group, and a solvent administration group as a control group were set up.

[8] = system: Human breast cancer cell line MDA-MB-453; test: Antitumor study (4): subcutaneously transplanted MDA-MB-453 cells in nude mice; conditions: MDA-MB-453 xenograft, ADC (1) 0.5 mg/kg iv Day 0, paclitaxel 15 mg/kg iv Day 0, 7
Experimental: as §3
Human breast cancer cell line MDA-MB-453, which was purchased from ATCC, was suspended into Matrigel basal membrane matrix (Matrigel), subcutaneously transplanted at 1×10^7 cells into the right side of female nude mice, and the mice were randomly grouped 7 days after the transplantation (Day 0). […] Paclitaxel was intravenously administered to the tail vein at a dose of 15 mg/kg on Day 0 and Day 7. Single administration groups of each drug, a combined administration group, and a solvent administration group as a control group were set up.

Molecule | tumor growth inhibition (TGI) [1] [%] | TGI [2] [%] | TGI [3] [%] | TGI [4] [%] | TGI [5] [%] | TGI [6] [%] | TGI [7] [%] | TGI [8] [%]
CC(=O)O[C@H]1C(=O)[C@@]2(C)[C@H]([C@H](OC(=O)c3ccccc3)[C@]3(O)C[C@H](OC(=O)[C@H](O)[C@@H](NC(=O)c4ccccc4)c4ccccc4)C(C)=C1C3(C)C)[C@]1(OC(C)=O)CO[C@@H]1C[C@@H]2O [paclitaxel] | 48 | 30 | 50 | 36 | 58 | 80 | 55 | 96
antibody-drug conjugate (2): anti-HER3 antibody (SEQ ID NO: 3 and 4) conjugated to exatecan-derivative drug-linker via a thioether bond | – | – | – | 69 | – | – | – | –
C=C1C[C@@H]2CC[C@@]34C[C@H]5O[C@H]6[C@@H](O3)[C@H]3O[C@H](CC[C@@H]3O[C@H]6[C@H]5O4)CC(=O)C[C@@H]3[C@@H](OC)[C@@H](C[C@H](O)CN)O[C@H]3C[C@H]3O[C@@H](CC[C@@H]1O2)C[C@@H](C)C3=C [eribulin mesylate] | 91 | 73 | 64 | – | – | – | – | –
B1 | – | – | – | – | – | 97 | – | –
